Peptide text beside a SMILES is read from it. * marks the point of attachment. Cbz = O=C(OCc1ccccc1)*
Key:
[1] = tested on: HeLa cells; assay: Unfolding stress detection in living cells (desthiobiotin oxaziridine labeling, Western blot against biotin); format: cell-based; conditions: HeLa cells treated 8 hours, lysate labeled with desthiobiotin oxaziridine (250 μM)
Excerpt: In another application, we used Trp-CLiC as a general method to probe stress-induced protein unfolding. Indeed, under various environmental stresses, folded proteins will expose more hydrophobic residues as they unfold, and accumulation and aggregation of unfolded proteins is regarded as a signal of loss of proteostasis (34-37). Owing to its sterically demanding and hydrophobic properties, tryptophan residues are more likely to be buried in protein cores. We reasoned that this oxidative cyclization method could enable monitoring of increases in solvent accessibility of buried tryptophan residues during stress-induced protein unfolding. To test this hypothesis, we labeled lysozyme as a model protein in the presence of varying concentrations of guanidinium chloride (GdmCl) as a denaturant. […] We then used Trp-CLiC to monitor stress-induced protein unfolding in whole cell proteomes. HeLa cells were treated with the proteasome inhibitor MG-132, the ER stress inducer Tunicamycin to trigger unfolded protein stress responses, or vehicle control, then lysed and labeled with N-sulfonyl oxaziridine linked to desthiobiotin.
HeLa cells were treated with MG-132 (5 μg/ml) or Tunicamycin (5 μM) for 8 hours. Then cells were harvested and lysed in PBS buffer (1% Triton, with protease inhibitors). […] The labeling results were detected by Western blot analysis against biotin.

[2] = Selectivity and reactivity of Ac-Trp-OMe with N-sulfonyl oxaziridines (LC-MS); conditions: for selectivity for the indole cycloadduct product: library screen with Ac-Trp-OMe
Experimental: Initial reactivity studies with the N-sulfonyl oxaziridine Ox-W1 and N-acetyl-L-tryptophan methyl ester (Ac-Trp-OMe) were then performed in PBS/organic solvent mixture for 10 min at room temperature and subjected to liquid chromatography-mass spectrometry (LC-MS) analysis. Tryptophan reacted with a ˜50% conversion. Two major products were observed: the desired indole cycloadduct and hydroxyl tryptophan. The cycloadduct was generated with 28% yield, consistent with simple indoles that can react with such oxaziridines in organic solution (28). […] We then synthesized and screened a library of 20 different oxaziridines for Trp-CLiC chemistry; Ox-W10, Ox-W17, and Ox-W19 emerged as the top lead candidates with improved ˜90% selectivity and high reactivity for the indole cycloadduct product, with a measured reaction rate of 24.9±1.3M^−1 s^−1 that is on par with click chemistry reactions (29-31).
A stock solution of Ac-Trp-OMe (100 mM) in MeOH was mixed with oxaziridine (100 mM) in MeOH (v/v ratio=1:1.2), followed by the immediate addition of PBS (1 volume equiv. to make 1:1 PBS/MeOH). For some oxaziridines with low solubility, the reaction was performed in PBS/MeOH/MeCN (1:1:1) co-solvent. […] It is important the initial stock solutions of Ac-Trp-OMe and oxaziridine are fully homogeneous prior to mixing.
For LC-MS analysis, solvent A was water and solvent B was methanol. The linear gradient was 40-100% B in 6.5 min and 100% B for 1.5 min.

[3] = Reaction of oxaziridine with methionine
[4] = Kinetics of the Trp-CLiC reaction (absorbance at 280 nm, UV-Vis); conditions: PBS buffer, 25° C.
Experimental: For kinetics study of the Trp-CLiC reaction, the absorbance at 280 nm was time-dependently monitored by UV-Vis upon adding Ox-W18 (50 μM) into different concentrations of Ac-Trp-OMe (500 μM, 550 μM and 600 μM) in PBS buffer at 25° C. Then the second-order reaction rate constant could be obtained.

[5] = molecular target: GLP-1 (Homo sapiens, UniProt P01275); assay: Oxaziridine screening on peptides: GLP-1 (Q-TOF); format: biochemical; conditions: GLP-1 (50 μM), oxaziridine (300 μM)
Experimental: Peptides were dissolved in 5% DMSO solution. […] The labeled peptides were subjected to Q-TOF analysis with a Proswift RP-4H (monolithic phenyl, 1.0 mm×50 mm, Dionex) column. The Solvent A was MilliQ water with 0.1% (v/v) formic acid, while the Solvent B was ACN with 0.1% (v/v) formic acid. The LC system was set at the 0.30 mL/min with a gradient of 5-100% solvent B in solvent A over 8 min. MassHunter Quantitative Analysis Version software was used for ion chromatogram extraction and Maximum Entropy deconvolution.

[6] = tested on: HEK 293T cell lysates; assay: Activity-based protein profiling (ABPP) of hyperreactive tryptophan sites; format: biochemical, human; conditions: identified in more than two replicates
Excerpt: We next moved on to apply Trp-CLiC at the whole proteome level, specifically to identify new functional tryptophan sites in cells using activity-based protein profiling (ABPP).
From the ABPP studies with the Trp-CLiC method, 190 unique hyperreactive tryptophan sites from 151 probe-modified proteins were identified in more than two replicates. These Ox-W18-labeled tryptophan sites were found in many classes of proteins, including enzymes, chaperones, and nucleoproteins, as well as many structural proteins. Meanwhile, we noticed that many targets are classified as non-druggable and highly enriched in diverse phase-separated compartments, such as the nucleolus, nuclear body, paraspeckle and stress granule. […] For example, the hyperreactive W196 site identified on GAPDH, W346 site found on TBA1B, and W324 and W148 on LDHA enzyme are the most surface-exposed tryptophan residues in these proteins, whereas other tryptophan residues were not probed. […] GAPDH and TBA1B were chosen as representative examples to showcase the Trp-CLiC method for ABPP. […] We then sought to further investigate the character of probed solvent-accessible tryptophan sites by performing motif analysis. […] Lysine is hydrophilic and has the capacity to form cation-π interactions with the indole tryptophan ring, providing a potential pathway for stabilizing hydrophobic tryptophan residues being surface-exposed (38, 39). […]

[7] = tested on: GAPDH and TBA1B; assay: GAPDH and TBA1B labeling by Western Blot; format: biochemical
Excerpt: From the ABPP studies with the Trp-CLiC method, 190 unique hyperreactive tryptophan sites from 151 probe-modified proteins were identified in more than two replicates. These Ox-W18-labeled tryptophan sites were found in many classes of proteins, including enzymes, chaperones, and nucleoproteins, as well as many structural proteins. Meanwhile, we noticed that many targets are classified as non-druggable and highly enriched in diverse phase-separated compartments, such as the nucleolus, nuclear body, paraspeckle and stress granule. […] For example, the hyperreactive W196 site identified on GAPDH, W346 site found on TBA1B, and W324 and W148 on LDHA enzyme are the most surface-exposed tryptophan residues in these proteins, whereas other tryptophan residues were not probed. […] GAPDH and TBA1B were chosen as representative examples to showcase the Trp-CLiC method for ABPP. […] We then sought to further investigate the character of probed solvent-accessible tryptophan sites by performing motif analysis. […] Lysine is hydrophilic and has the capacity to form cation-π interactions with the indole tryptophan ring, providing a potential pathway for stabilizing hydrophobic tryptophan residues being surface-exposed (38, 39).

[8] = molecular target: lysozyme (Gallus gallus, UniProt P00698); assay: Lysozyme labelling with Ox-W18 (A260/A280 ratio, LC-MS/MS); conditions: native folded conditions
Excerpt: Based on spectroscopic analyses, we used the ratio of absorption signatures at 260 and 280 nm (A260/A280 ratio) to track tryptophan bioconjugation on lysozyme.
We next evaluated how many and which tryptophan residues on lysozyme are prioritized for redox-based Trp-CLiC labeling under native folded conditions. […] We then moved on to identify which tryptophan sites are targeted and tested the hypothesis that the propensity of oxidative tryptophan modification reactivity might correlate with solvent accessibility. To this end, we used the Discovery Studio platform to calculate the relative solvent accessibility of the six tryptophan residues on lysozyme.
Proteins were dissolved in Tris (50 mM, pH 8.0) buffer. Ox-W18 (100 mM stock in DMF) was added to 30 μL protein solution (50 μM) and the final concentration was 300 μM. The reactions were performed for 10 min at room temperature and then quenched by addition of excess Ac-Met-OMe solution. For protein labelling under denaturing condition, the protein solution was treated with 0.5% SDS and then boiled for 5 min at 95° C. before Ox-W18 addition. For competition assay, free Ac-Trp-OMe (2 mM) was added beforehand. […]
(§1) Trypsin digested peptides were analyzed on a Thermo Scientific Q Exactive™ Plus Hybrid Quadrupole-Orbitrap™ Mass Spectrometer coupled with an Aligent 1260 Infinite LC system. […]

[9] = molecular target: T1, IL8 (Homo sapiens, UniProt P10145); assay: Protein labelling with N-sulfonyl oxaziridine: IL8 (LC-MS/MS); conditions: native vs denaturant-treated IL8
T1 sequence (P10145 21-99): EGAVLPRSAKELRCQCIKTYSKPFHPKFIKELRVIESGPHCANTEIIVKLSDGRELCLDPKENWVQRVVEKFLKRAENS
Experimental: We then went on to label the model protein IL8, which has one partially buried tryptophan site.
Proteins were dissolved in Tris (50 mM, pH 8.0) buffer. Ox-W18 (100 mM stock in DMF) was added to 30 μL protein solution (50 μM) and the final concentration was 300 μM. The reactions were performed for 10 min at room temperature and then quenched by addition of excess Ac-Met-OMe solution. For protein labelling under denaturing condition, the protein solution was treated with 0.5% SDS and then boiled for 5 min at 95° C. before Ox-W18 addition. For competition assay, free Ac-Trp-OMe (2 mM) was added beforehand. […] After tryptophan labelling with Ox-W18, the proteins were desalted with Zeba™ Spin Desalting Columns (7K MWCO, 0.5 mL) before subsequent Q-TOF analysis and UV-Vis analysis or further click reaction. In-gel fluorescence imaging was also applied to test the tryptophan labelling efficiency. For the copper-mediated alkyne-azide cyclization reaction of fluorescence dye, 100 μM CuSO4, 100 μM TBTA, 100 μM azide-dye and 2 mM sodium ascorbate was added to Ox-W18-labeled proteins. […]
as §1
For protein ID and modification identification, all MS/MS raw files were analyzed using pFind platform. […]

[10] = Ac-Trp-OMe, PBS/organic solvent mixture, 10 min, room temperature

GLP-1, sequence (P01275 92-128 limits assumed): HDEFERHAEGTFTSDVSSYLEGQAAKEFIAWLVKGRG
lysozyme, sequence (P00698 19-147): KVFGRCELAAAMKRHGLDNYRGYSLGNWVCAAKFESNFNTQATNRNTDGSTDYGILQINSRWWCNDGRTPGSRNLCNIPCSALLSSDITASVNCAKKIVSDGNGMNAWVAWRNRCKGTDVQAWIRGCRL

Compound: CC(C)C[C@@H](C=O)NC(=O)[C@H](CC(C)C)NC(=O)[C@H](CC(C)C)NC(=O)OCc1ccccc1 [MG-132] (Cbz-Leu-Leu-Leu-aldehyde)
- desthiobiotin staining signal vs vehicle control [1]: more desthiobiotin staining signal

Compound: CS(=O)(=O)N1OC1c1ccccc1 (stereo not drawn) [Ox-W1]
- Tryptophan conversion [2, 10]: ~50%
- indole cycloadduct yield [2, 10]: 28%
- product of reaction with methionine [3]: traceless methionine sulfoxide adduct

Compound: COc1ccc(S(=O)(=O)N2OC2c2ccc([N+](=O)[O-])cc2[N+](=O)[O-])cc1 (stereo not drawn) [Ox-W10]
- selectivity for the indole cycloadduct product [2]: ~90%
- measured reaction rate (second-order rate constant) [4]: 24.9 ± 1.3 M⁻¹ s⁻¹

Compound: C#Cc1ccc(S(=O)(=O)N2OC2c2ccccc2[N+](=O)[O-])cc1 (stereo not drawn) [Ox-W17]
- selectivity for the indole cycloadduct product [2]: ~90%
- measured reaction rate (second-order rate constant) [4]: 24.9 ± 1.3 M⁻¹ s⁻¹

Compound: C#CCN(C)S(=O)(=O)N1OC1c1ccccc1[N+](=O)[O-] (stereo not drawn) [Ox-W18]
- conversion [5]: quantitative
- cycloadduct yield [5]: 74%
- probe-modified proteins identified [6]: 151
- unique hyperreactive tryptophan sites identified [6]: 190
- GAPDH and TBA1B labeling with increased probe addition [7]: more GAPDH and TBA1B labeling
- A260/A280 ratio [8]: 0.80
- modification of the partially buried tryptophan site [9]: modified only after treatment with a denaturant

Compound: C#CCN(C)S(=O)(=O)N1OC1c1ccc([N+](=O)[O-])cc1[N+](=O)[O-] (stereo not drawn) [Ox-W19]
- selectivity for the indole cycloadduct product [2]: ~90%
- measured reaction rate (second-order rate constant) [4]: 24.9 ± 1.3 M⁻¹ s⁻¹

Compound: Tunicamycin
- desthiobiotin staining signal vs vehicle control [1]: more desthiobiotin staining signal

Reference: patent US20240316223A1, “Oxidative Cyclization Reagents for Chemoselective Tryptophan Bioconjugation” (The Regents of the University of California, priority 2021, published 2024)
